According to patent US9211313B2, “Methods and compound to inhibit Ca2+ permeable cation conductance” (priority 2011, dated 2015):
Read-outs that look alike come from different tables or passages of the source. Where a SMILES comes first, the peptide text is derived from it. Bridges are numbered along the chain shown (N, C = ends). [ ]: non-standard residue; d: D form.

What was measured:
mdx mice = assay: Toxicity with daily subQ dosing for 30 days; type: in vivo, mouse; conditions: 5 mg/kg subQ daily, 30 days (month long)
Description: This example describes toxicity studies with GsMTx-4. In one experiment, D-GsMTx4 was administered to 60 mdx mice and controls by daily subQ dosing at 5 mg/kg for 30 days at the Washington D.C. Wellstone center.

mice = assay: Acute IV toxicity, observed for 1 hour, mice; type: in vivo, mouse
Description: In another experiment, mice were IV injected with D-GsMTx4 at 9, 5, 3, and 1 mg/kg concentrations and observed for 1 hour at Covance Drug Development Company. There were 3 mice injected per concentration. […] All mice appeared normal by 1 hour.

rats = assay: Acute IV toxicity, observed for 1 hour, rats; type: in vivo, rat
Description: In another experiment, rats were IV injected with D-GsMTx4 at 9, 3, and 1 mg/kg concentrations and observed for 1 hour at Covance Drug Development Company. There were 3 rats injected for 3 and 1 mg/kg and 1 rat injected for 9 mg/kg concentration.

ferrets = assay: Cardiovascular hemodynamics and EKG after IV injection in telemetered animals; type: in vivo, ferret; conditions: IV 0.2 to 5 mg/kg
Description: In another study, Cardiovascular hemodynamics and EKG was assessed after IV injection of D-GsMTx4 into telemetered free ranging ferrets in 4 cohorts of 3 animals over concentration ranging from 0.2 to 5 mg/kg at Covance Drug Development Company. This study was one of the main recommendations given us by the TACT advisory panel in Spring 2011. Particular attention was given to QT intervals, arterial pressure (mean, systolic and diastolic) and core temperature for 24 hours following IV injection.

[1] = Tissue distribution over 24 hrs after a single dosing; type: in vivo, mouse; conditions: for Tmax: mouse, blood, read-out: time of peak blood concentration
Description: This example describes the tissue distribution of GsMTx-4. Mice were dosed with D-GsMTx4 by three methods of administration and sacrificed at different time points over 24 hrs by Covance Drug Development Company. Tissues were harvested and sent frozen to Custom Biologics Company for concentration analysis. There were three animals per cohort and 7 time points distributed approximately logarithmically over 24 hours following a single dosing. We followed the distribution of peptide for three routes of administration −5 mg/kg IV, 50 mg/kg subQ and 50 mg/kg GI lavage. […] We sampled 7 different tissues including EDL muscle, diaphragm, brain, bladder, heart, liver and blood. […] Under both methods the peptide peaked in all tissues at about 2 hrs and plateaued for the 24 hr experiment duration. […] The distribution followed a pattern reflecting the relative capillary permeability of the tissue. […] Since the peptide has a strong partition coefficient to lipids, the mean concentration in the tissues is much lower than that in the membrane, the site of action.

neurite = assay: Neurite initiation and neurite length; type: cell-based
Description: The peptide GsMTx4 of the present invention can be prepared for pharmaceutical use by incorporation with a pharmaceutically acceptable carrier or diluent. The peptide can be formulated into tablets, capsules, caplets and the like. Suitable carriers for tablets include calcium carbonate, starch, lactose, talc, magnesium stearate and gum acacia. The peptide can also be formulated for oral, parenteral or intravenous administration in aqueous solutions, aqueous alcohol, glycol or oil solutions or emulsions. The peptide can also be formulated for inhaling by encapsulating to facilitate alveolar absorption as has been done for insulin (Inhale Therapeutic Systems, San Carlos, Calif., inhale.com). Pharmaceutical compositions suitable for such routes of administration are well known in the art. For example, suitable forms and compositions of pharmaceutical preparations can be found in Remington's Pharmaceutical Science, 1980, 15^thed. Mack Publishing Co., Easton, Pa. Thus, the peptide GsMTx4 can be administered orally, subcutaneously, parenterally, intravenously, intramuscularly or intranasally. The peptide may also be applied to medical devices that will come into contact blood. Both L and D enantiomers of GsMTx4's and its variants can be used for the present invention. We have previously shown that both L- and D-GsMTx4 block mechanosensitive channel (MSC) activity. Although, we have noted differences in the effects of these enantiomers, both forms are effective. For example, we have observed that the ability of the mirror image form (D-enantiomer) to inhibit mechanically activated ion channels is similar to the wild type peptide (L-form) (Suchyna et al 2004). […] Thus, both L and the D forms can be used in the present invention.

[2] = test system: mechanosensitive channel (MSC); conditions: cited from earlier work
[3] = target: deoxygenation-induced Ca2+-permeable cation conductance (Psickle-like)
[4] = target: lysophosphatidic acid (LPA)-activated cation-permeable channel in human SS red cells
KCa3.1 = target: T1, KCa3.1 (Homo sapiens, UniProt O15554); conditions: 50 nM; cited from earlier work
T1 construct: KCa3.1 activity stimulated in intact human AA cells by 1 μM A23187; endogenous in cells; host or cells: intact human AA red blood cells
T1 sequence (O15554 whole entry): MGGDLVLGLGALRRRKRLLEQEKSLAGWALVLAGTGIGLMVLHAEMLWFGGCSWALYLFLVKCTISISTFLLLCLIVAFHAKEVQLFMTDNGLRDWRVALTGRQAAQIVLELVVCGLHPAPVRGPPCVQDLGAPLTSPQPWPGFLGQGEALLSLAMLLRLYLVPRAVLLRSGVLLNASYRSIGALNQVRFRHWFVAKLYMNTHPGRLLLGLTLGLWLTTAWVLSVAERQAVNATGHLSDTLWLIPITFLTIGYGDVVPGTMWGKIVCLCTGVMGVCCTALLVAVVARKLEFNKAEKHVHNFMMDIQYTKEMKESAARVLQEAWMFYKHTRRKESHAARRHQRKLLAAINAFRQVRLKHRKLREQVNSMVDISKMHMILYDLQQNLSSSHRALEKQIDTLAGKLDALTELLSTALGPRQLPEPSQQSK

[5] = test system: LPA-induced cation conductance in human SS red cells; assay: On-cell patch clamp of LPA-induced cation conductance; type: cell-based; conditions: 5 μM; Na methanesulfonate in bath and pipette, -Vp=-50 mV; n=8
Description: On-cell patch clamp: Borosilicate pipettes (Corning 7052) pulled with a Narishige two stage puller or a Sutter P97 puller and fire-polished to resistances of 10-20 MΩ were front-filled and then backfilled. Symmetric bath and pipette solutions for studies of seal resistance stability during reversibility tests of the deoxygenation-activated conductance in SAD mouse red cells were (in mM) 140 NaCl, 4 KCl, 1 CaCl2, 1 MgCl2, 10 Na HEPES, pH 7.4. These conditions yielded tight seals in 13% of patch attempts on SAD cells. For study of deoxygenation-induced monovalent cation permeation in the absence of bath Ca^2+ and Mg^2+ recorded in SAD and Berkeley mouse cells and in human cells, symmetric bath and pipette solutions contained (in mM) 150 Na methanesulfonate, 10 Na EDTA, and 10 Na HEPES, pH 7.4. These conditions yielded tight seals in 16% of patch attempts on SAD mouse red cells, 26% of attempts on Berkeley mouse cells, and 30% of attempts on human SS cells. For study of Ca^2+ permeation in human SS cells, bath and pipette solutions contained (in mM) 100 CaCl2, 10 Na HEPES, pH 7.4. These conditions yielded tights seals on 44% of attempts. For all conditions tested in human red cells, 70% of tight seals were sustained through the solution change accompanying deoxygenation to allow recording of current activity.
On-cell patch currents were recorded with the Axopatch 1-D amplifier (Axon Instruments/Molecular Devices, Sunnyvale, Calif.). Holding potential was −Vp=−50 mV (expressed as the negative of the pipette potential (e.g., equivalent to the intracellular potential with respect to the pipette). To determine current-voltage relationships (I-V curves) in Fetchex or Clampex (PCLAMP, Axon Instruments), the realtime control window in gap-free mode was used to record current traces of 10-30 sec duration at holding potentials ranging from −100 to +100 mV, in 25 mV increments. The bath reference electrode was a silver chloride wire with a 3 M KCl agar bridge. Data was filtered at 500 Hz, digitized at 2 kHz by Clampex, and analyzed offline by Fetchan and Pstat or by Clampfit subroutines of PCLAMP. Holding potentials in on-cell patch experiments were expressed as −Vp, the negative of the pipette potential.
Deoxygenation-activated flickering cation conductance observed in human SS cells contrasted with the prolonged channel openings produced by 5 μM LPA (FIG. 10A). In SS cells, LPA increased NPo […], from 0.04±0.03 to 0.82±0.18 (n=8, p<0.001; Na methanesulfonate in bath and pipette, −Vp=−50 mV; FIG. 10B). LPA-induced cation conductance was 96% inhibited by 100 uM dipyridamole in the pipette, and 97% inhibited by 1 μM GsMTx-4 in the pipette (both n=4).

human SS red cells = assay: Fluo-3 fluorescence measurement of [Ca2+]i after LPA; type: cell-based; conditions: 5 μM; 75 SS red cells
Description: Fluorescence measurements of cytosolic [Ca^2+] ([Ca^2+]i): After removal of plasma and buffy coat by aspiration, human or mouse red cells were washed three times at room temperature and suspended in modified Hank's solution containing (in mM), 137 NaCl, 5.4 KCl, 1 CaCl2, 1 MgCl2, 0.8 NaK phosphate, 5.6 glucose, and 10 Na HEPES, pH 7.4. Dilute cell suspensions were settled on polylysine-coated coverslips forming the bottom of an open perfusion chamber (2.5 cm diameter, 1 cm depth) and washed again 3 times.
Measurement of relative changes in [Ca^2+]i by Fluo-3 fluorescence emission was previously validated in intact human (Yang et al. 2000, Blood, 95(7):2421-2425; Andrews et al. 2002, Blood, 199(9):3392-3399) and mouse red cells (Akel et al. 2007, Amer. J. Physiol., 292(5):C1759-1767). Attached red cells were loaded in the dark with the fluorescent non-ratiometric Ca^2+ indicator Fluo-3-AM (10 μM, Molecular Probes, Eugene, Oreg.) at 37° C. for 1 hr, then washed and incubated 15 min further to allow de-esterification of intracellular dye. […] Fluorescence emission (proportional to [Ca^2+]i) from a 535ds20 bandpass filter was collected from all attached single cells within the arbitrarily selected visual field. […]

CC(C)C[C@H]1NC(=O)[C@H](NC(=O)CN)CSSC[C@H]2NC(=O)[C@H]3CSSC[C@H](C(=O)N[C@H](CC(N)=O)C(=O)N[C@H](Cc4ccccc4)C(=O)N[C@H](CO)C(=O)N[C@H](Cc4ccccc4)C(N)=O)NC(=O)[C@@H](CC(C)C)NC(=O)[C@@H](CCCCN)NC(=O)[C@@H](Cc4ccccc4)NC(=O)[C@@H](CC(C)C)NC(=O)[C@@H](CCCCN)NC(=O)[C@@H](CO)NC(=O)[C@@H](CSSC[C@@H](NC(=O)[C@@H](CCCCN)NC(=O)[C@@H](Cc4c[nH]c5ccccc45)NC(=O)[C@@H](Cc4c[nH]c5ccccc45)NC(=O)[C@@H](Cc4ccccc4)NC(=O)[C@@H](CCC(=O)O)NC1=O)C(=O)N[C@H](CC(N)=O)C(=O)N1CCC[C@@H]1C(=O)N[C@H](CC(N)=O)C(=O)N[C@H](CC(=O)O)C(=O)N[C@H](CC(=O)O)C(=O)N[C@H](CCCCN)C(=O)N3)NC(=O)[C@@H](CCCCN)NC(=O)[C@@H](CC(C)C)NC(=O)[C@@H](CCCCN)NC(=O)[C@H]1CCCN1C(=O)[C@@H](CCCNC(=N)N)NC2=O [D-GsMTx4] (H-G[dC][dL][dE][dF][dW][dW][dK][dC][dN][dP][dN][dD][dD][dK][dC][dC][dR][dP][dK][dL][dK][dC][dS][dK][dL][dF][dK][dL][dC][dN][dF][dS][dF]-NH2; disulfide 2-17, 9-23, 16-30 (inferred); N-terminus and C-terminus assumed)
toxicity (mdx mice): No apparent toxicity | clinical signs (mice; IV 9 mg/kg (highest dose), mice): slight tremors and decreased activity | duration of clinical signs after injection (mice; IV 9 mg/kg, mice): ~0.5 h | mortality (mice; IV 9, 5, 3 and 1 mg/kg, mice, 1 hour): No animals died | time by which all mice appeared normal (mice; IV, all doses): ≤ 1 h | clinical signs (rats; IV 9 mg/kg (highest dose), rat, remained for the 60 minute test duration): slow respiration, refusal to ambulate, decreased muscle tone | mortality (rats; IV 9, 3 and 1 mg/kg, rats, 1 hour): No animals died | behavior changes (ferrets): no behavior changes | changes in QT intervals, arterial pressure and core temperature (ferrets; 24 hours): No statistically significant changes | mortality ([1]; 5 mg/kg IV, 50 mg/kg subQ, 50 mg/kg GI lavage, 24 hour): No animals died | time of peak in all tissues ([1]; 5 mg/kg IV, mice): about 2 hrs | concentration in tissues ([1]; 50 mg/kg GI lavage, mice): almost no measurable concentration | time of peak in all tissues ([1]; 50 mg/kg subQ, mice): about 2 hrs | distribution pattern among tissues ([1]; IV and subQ, 7 tissues): liver received the most while brain received the least | course of tissue concentration after peak ([1]; IV and subQ, 24 hr): plateaued | course of blood concentration after peak ([1]; IV and subQ, over 24 hrs): decreased exponentially | Tmax ([1]; sc, 50 mg/kg subQ, mice): ≤ 2 h | Tmax ([1]; 5 mg/kg IV, mice): ≤ 2 h | effective half life of bound drug ([1]; suggested by the distribution data): very long | effect on neurite length (neurite): no significant effect | neurite initiation (neurite): did not stimulate | ability to inhibit mechanically activated ion channels compared with wild type peptide (L-form) ([2]; Suchyna et al 2004): similar | effect on mechanosensitive channel (MSC) activity ([2]; previously shown): block

Grammastola spatulata mechanotoxin 4 (GsMTx4) (peptide)
NPo of deoxygenation-induced cation conductance, on-cell patch on human SS red cells, Na methanesulfonate in pipette and bath [3]: 0.003 NPo | LPA-induced cation conductance (NPo), on-cell patch on human SS red cells [4]: 97 % inhibited

charybdotoxin
effect on A23187-stimulated 86Rb+ influx (KCa3.1): completely inhibited

lysophosphatidic acid [LPA]
NPo after exposure [5]: 0.82±0.18 | increase in NPo [5]: 16 fold | effect on [Ca2+]i (Fluo-3 fluorescence) (human SS red cells): elevated
